Measured values reported in patent US4182896A, “Indane derivatives” (Societe Hexachimie, priority 1974, dated 1980).
Structures can show the parent of a compound that is named as a salt.

Key:
[1] = tested on: SPF male rats, OFA strain; assay: Anti-inflammatory activity: paw swelling after subcutaneous plantar injection of carraghenine, oral administration; format: in vivo; details: for ED50 / ED50 (50% effective dose), anti-inflammatory: at the moment of greatest swelling of the controls; for ED50: read-out: ED50 (50% effective dose), anti-inflammatory; for inhibition in vivo at 512 mg/kg: 512 mg/kg oral; for percentage reduction in the inflammation / ED50 (50% effective dose), anti-inflammatory: rat; for ED50 (50% effective dose), anti-inflammatory: oral
Protocol: Anti-inflammatory activity
The products to be tested are administered orally to batches of 12 SPF male rats, OFA strain, weighing 120-130 g, 2 hours and 30 minutes (1/2 dose each time) before the subcutaneous plantar injection of 0.05 ml of a 1% strength solution of carraghenine. The volume of the back paw which received the phlogogenic agent is measured at regular intervals. The 50% effective dose is calculated at the moment of greatest swelling of the controls.
The results are given in Tables I to IV below, in which the percentage reduction in the inflammation is noted.

[2] = tested on: male mice (SPF1, OF1 strain); assay: Analgesic activity: inhibition of pain reactions (abdominal twistings) after intraperitoneal phenylbenzoquinone, oral administration; format: in vivo; details: for inhibition in vivo at 64 mg/kg: 64 mg/kg oral; for inhibition in vivo at 256 mg/kg: 256 mg/kg oral; for ED50: read-out: ED50 (50% effective dose), analgesic; for inhibition in vivo at 512 mg/kg: 512 mg/kg oral; for percentage inhibition of pain reactions / ED50 (50% effective dose), analgesic: mouse; for ED50 (50% effective dose), analgesic: oral; for inhibition in vivo at 4 mg/kg: 4 mg/kg oral
Protocol: The products tested are administered orally to batches of 6 male mice (SPF1, OF1 strain) weighing 19-20 g.
1 hour later, 0.3 ml of a 0.02% strength solution of phenylbenzoquinone is injected intraperitoneally into each mouse and, from the 5th to the 10th minute after the latter treatment, the number of pain reactions (abdominal twistings) is counted.
Table V to VIII below give the percentage inhibition of these reactions.

[3] = Rattus norvegicus, po, 64 mg/kg oral, carraghenine, read-out: percentage reduction in the inflammation
[4] = Rattus norvegicus, po, 128 mg/kg oral, carraghenine, read-out: percentage reduction in the inflammation
[5] = Rattus norvegicus, po, 256 mg/kg oral, carraghenine, read-out: percentage reduction in the inflammation
[6] = Mus musculus, po, 16 mg/kg oral, read-out: percentage inhibition of pain reactions
[7] = Mus musculus, po, 32 mg/kg oral, read-out: percentage inhibition of pain reactions
[8] = Mus musculus, po, read-out: percentage inhibition of pain reactions
[9] = Mus musculus, po, 128 mg/kg oral, read-out: percentage inhibition of pain reactions
[10] = Rattus norvegicus, po, 32 mg/kg oral, carraghenine, read-out: percentage reduction in the inflammation
[11] = Rattus norvegicus, po, 16 mg/kg oral, carraghenine, read-out: percentage reduction in the inflammation
[12] = Mus musculus, po, 8 mg/kg oral, read-out: percentage inhibition of pain reactions
[13] = Rattus norvegicus, po, carraghenine, read-out: percentage reduction in the inflammation

SMILES | inhibition in vivo at 64 mg/kg [1, 3] | inhibition in vivo at 128 mg/kg [1, 4] | inhibition in vivo at 256 mg/kg [1, 5] | ED50 ([1]; Rattus norvegicus, po) | inhibition in vivo at 16 mg/kg [2, 6] | inhibition in vivo at 32 mg/kg [2, 7] | inhibition in vivo at 64 mg/kg [2, 8] | inhibition in vivo at 128 mg/kg [2, 9] | inhibition in vivo at 256 mg/kg [2, 8] | ED50 ([2]; Mus musculus, po) | inhibition in vivo at 32 mg/kg [1, 10] | inhibition in vivo at 16 mg/kg [1, 11] | also measured
CC1CC(C)c2cc(CC(=O)O)ccc21 (centres unmarked) [Example 1, [1,3-Dimethyl-indanyl-(5)]-acetic acid] | 15% | 42% | 88% | 130 mg/kg | 25% | 28% | 67% | 89% | 94% | 43 mg/kg |  |  | 
CC1CC(C)c2cc(CC(=O)O)c(Cl)cc21 (centres unmarked) [Example 3, [6-Chloro-1,3-dimethyl-indanyl-(5)]-acetic acid] | 24% | 36% | 56% | 200 mg/kg | 33% | 51% | 66% | 66% | 94% | 33 mg/kg |  |  | 
CC(C)C1Cc2ccc(CC(=O)O)cc2C1 (centres unmarked) [Example 4, [2-Isopropyl-indanyl-(5)]-acetic acid] | 19% | 47% | 80% | 120 mg/kg | 6% | 33% | 70% | 99% |  | 40 mg/kg | 10% |  | 
O=C(O)Cc1ccc2c(c1)CCC2C1CCCCC1 (centres unmarked) [Example 5, [1-Cyclohexyl-indanyl-(5)]-acetic acid] |  |  |  |  |  |  | 32% |  | 58% | ~150 mg/kg |  |  | 
CC(C(=O)O)c1ccc2c(c1)CC(C(C)C)C2 (centres unmarked) [Example 7, 2-Methyl-[2-Isopropyl-indanyl-(5)]-acetic acid] | 73% | 75% |  | 22 mg/kg | 61% | 96% |  |  |  | 14 mg/kg | 61% | 43% | inhibition in vivo at 8 mg/kg ([1]; Rattus norvegicus, po, 8 mg/kg oral, carraghenine, read-out: percentage reduction in the inflammation): 29%; inhibition in vivo at 8 mg/kg [2, 12]: 17%
CC(C)C1Cc2ccc(CC(=O)OCCN3CCOCC3)cc2C1 (centres unmarked) [Example 8, Hydrochloride of the morpholino-ethyl ester of [2-isopropyl-indanyl-(5)]-acetic acid] | 23% | 52% | 62% | 150 mg/kg |  | 10% | 67% | 73% | 90% | 70 mg/kg | 17% |  | 
CC(C(=O)OCCN1CCOCC1)c1ccc2c(c1)CC(C(C)C)C2 (centres unmarked) [Example 9, Morpholino-ethyl ester of 2-methyl-[2-isopropyl-indanyl-(5)]-acetic acid] | 80% |  |  | 17 mg/kg |  | 28% | 26% | 79% | 97% | 78 mg/kg | 68% | 47% | 
O=C(O)Cc1ccc2c(c1)CC(C1CCCCC1)C2 (centres unmarked) [Example 11, [2-Cyclohexyl-indanyl-(5)]-acetic acid] | 8% | 13% | 13% | > 512 mg/kg |  | 15% | 29% | 58% | 59% | 140 mg/kg | 4% |  | inhibition in vivo at 512 mg/kg [1, 13]: 32%; inhibition in vivo at 512 mg/kg [2, 8]: 83%
CC1Cc2ccc(CC(=O)O)cc2C1 (centres unmarked) [Example 12, [2-Methyl-indanyl-(5)]-acetic acid] | 49% | 71% | 80% | 70 mg/kg |  | 9% | 20% | 46% | 67% | 175 mg/kg | 23% | 15% | inhibition in vivo at 512 mg/kg [2, 8]: 75%
CC1(C)Cc2ccc(CC(=O)O)cc2C1 [Example 13, [2,2-Dimethyl-indanyl-(5)]-acetic acid] | 37% | 47% | 51% | 200 mg/kg | 15% | 30% | 71% | 83% |  | 46 mg/kg | 29% | 23% | 
CC(C(=O)O)c1ccc2c(c1)CC(C1CCCCC1)C2 (centres unmarked) [Example 14, 2-Methyl-[2-cyclohexyl-indanyl-(5)]-acetic acid] | 16% | 17% | 31% | > 512 mg/kg |  | 20% | 35% | 52% | 62% | 110 mg/kg | 5% | 11% | inhibition in vivo at 512 mg/kg [1, 13]: 34%; inhibition in vivo at 512 mg/kg [2, 8]: 93%
CC(C(=O)O)c1ccc2c(c1)CC(C)(C)C2 (centres unmarked) [Example 16, 2-Methyl-[2,2-dimethyl-indanyl-(5)]-acetic acid] | 37% | 61% | 94% | 73 mg/kg | 30% | 77% | 96% |  |  | 19 mg/kg | 20% | 4% | inhibition in vivo at 8 mg/kg [2, 12]: 13%
CCC(C(=O)O)c1ccc2c(c1)CC(C(C)C)C2 (centres unmarked) [Example 17, 2-Ethyl-[2-isopropyl-indanyl-(5)]-acetic acid] |  |  |  |  |  |  | 28% |  | 83% |  |  | 13% | percentage reduction in the inflammation ([1]; 32 mg/kg oral, carraghenine): 24%; percentage reduction in the inflammation ([1]; 64 mg/kg oral, carraghenine): 30%; percentage reduction in the inflammation ([1]; 128 mg/kg oral, carraghenine): 38%; percentage reduction in the inflammation ([1]; 256 mg/kg oral, carraghenine): 43%; ED50 (50% effective dose), anti-inflammatory [1]: > 256 mg/kg; percentage inhibition of pain reactions ([2]; 128 mg/kg oral): 70%; inhibition in vivo at 512 mg/kg [2, 8]: 100%; ED50 (50% effective dose), analgesic [2]: 100 mg/kg
CCC1Cc2ccc(C(C)C(=O)O)cc2C1 (centres unmarked) [Example 18, 2-Methyl-[2-ethyl-indanyl-(5)]-acetic acid] | 61% | 66% | 77% | 36 mg/kg | 75% | 95% |  |  |  | 6.5 mg/kg | 54% | 31% | inhibition in vivo at 2 mg/kg ([2]; Mus musculus, po, 2 mg/kg oral, read-out: percentage inhibition of pain reactions): 18%; inhibition in vivo at 4 mg/kg [2, 8]: 27%; inhibition in vivo at 8 mg/kg [2, 12]: 58%
CC(C(=O)O)c1ccc2c(c1)CC(C(C)C)C2 (centres unmarked) [Example 19, Dimethylaminoethanol salt of 2-methyl-[2-isopropyl-indanyl-(5)]-acetic acid] |  |  | 82% |  |  |  | 96% |  |  |  |  |  | percentage reduction in the inflammation ([1]; 8 mg/kg oral, carraghenine): 20%; percentage reduction in the inflammation ([1]; 16 mg/kg oral, carraghenine): 44%; percentage reduction in the inflammation ([1]; 32 mg/kg oral, carraghenine): 48%; percentage reduction in the inflammation ([1]; 64 mg/kg oral, carraghenine): 63%; percentage reduction in the inflammation ([1]; 128 mg/kg oral, carraghenine): 67%; inhibition in vivo at 4 mg/kg ([1]; Rattus norvegicus, po, 4 mg/kg oral, carraghenine, read-out: percentage reduction in the inflammation): 25%; ED50 (50% effective dose), anti-inflammatory [1]: 30 mg/kg; percentage inhibition of pain reactions ([2]; 8 mg/kg oral): 31%; percentage inhibition of pain reactions ([2]; 16 mg/kg oral): 54%; percentage inhibition of pain reactions ([2]; 32 mg/kg oral): 82%; inhibition in vivo at 4 mg/kg [2, 8]: 5%; ED50 (50% effective dose), analgesic [2]: 14 mg/kg
